According to patent publication US20210401834A1 (IMBRIA PHARMACEUTICALS, INC., priority 2020, published 2021):
Like-named read-outs stand apart in the source and are kept apart here.

Tests used:
[1] = Phase 1 FIH study: overall safety (vital signs, 12-lead ECG); assay type: in vivo, human; details: after administration as the MR formulations, healthy subjects
Description: These assessments were made using an automated device. Body temperature and respiratory rate were measured subsequently.
Safety and tolerability were assessed through AEs, clinical laboratory, vital signs, ECGs, continuous cardiac monitoring (telemetry), and physical examination findings, and any other parameter that was relevant for safety assessment.

[2] = Phase 1 FIH study, multiple-dose MR part: safety and tolerability; assay type: in vivo, human
Description: (§1) AEs were recorded from (first) admission until completion of the follow-up visit. Any clinically significant observations in results of clinical laboratory, 12-lead ECGs, vital signs, or physical examinations were recorded as AEs.
(§2) A treatment-emergent AE (TEAE) was defined as any event not present prior to (the first) administration of the study drug or any event already present that worsened in either severity or frequency following exposure to the study drug.
(§3) The severity of the AEs was rated as mild, moderate, or severe; the relationship between the AEs and the study drug was indicated as none, unlikely, possibly, likely, or definitely. Adverse events assessed as possibly, likely, or definitely were considered related to the study drug; AEs assessed as none or unlikely were considered not related to the study drug.

[3] = Decomposition kinetics of CV-8972 in media simulating the GI tract, 37° C., 0.2 mg/mL (HPLC); assay type: physicochemical
Description: The solution stability of CV-8972 was evaluated in multiple media currently used to simulate dissolution and stability conditions in the various sections of the GI tract. As CV-8972 will be subject to hydrolysis as it is dissolving in the GI tract, it will be important to understand these kinetics in terms of designing instant and controlled-release formulations. HPLC methods were used to perform these assessments.

[4] = Phase 1 FIH study, single-dose MR part: safety and tolerability; assay type: in vivo, human
Description: as §1, §2, §3

[5] = pH stability profile of a 1 mg/mL solution of CV-8972 at 23° C.; assay type: physicochemical
Description: The pH stability profile is summarized and shown in Table 2 for a 1 mg/mL solution of CV-8972 at 23° C.
The hydrolysis proceeds via the first step shown in FIG. 1, as Nicotinic acid and CV-8814 are the only decomposition products generated. The optimal pH for solution stability appears to be around pH 5-5.1 for a 1 mg/mL solution with acid-catalyzed hydrolysis increasing at pH values less than 5.0 and base-catalyzed hydrolysis increasing above pH 5.0.

[6] = BCS classification from solubility and permeability
Excerpt: CV-8972 can therefore be considered as BCS Class 1 per se, but the pre-systemic metabolism to CV-8814 and possibly other metabolites may complicate and impact the actual biopharmaceutical absorption profile found in humans.

[7] = human, in vivo, 200 mg
Excerpt: The MR formulation of IMB-1018972 to be administered on Day 13 under fed conditions was 1 of the 4 MR formulations administered on Days 1, 4, 7, and 10 under fasted conditions.
The effect of food on the relative oral bioavailability of IMB-1018972 following a single oral administration was explored. This occurred in the single-dose MR part where subjects received the same dose, first under fasted conditions and then under fed conditions.

[8] = human, in vivo, 150 mg
Description: The blood samples were taken via an indwelling intravenous catheter or by direct venipuncture. The exact times of blood sampling were recorded in the eCRF.
The subjects were instructed to empty their bladders completely before study drug administration and at the end of each collection interval. A blank urine sample was collected within 12 hours prior to study drug administration. The exact times of urine collection and the urine weight of the entire interval (before and after addition of any urine stabilizers, if used) were recorded in the eCRF.

Question: For `COc1ccc(CN2CCN(CCOC(=O)c3cccnc3)CC2)c(OC)c1OC` [CV-8972, 2-[4-[(2,3,4-trimethoxyphenyl)methyl]piperazin-1-yl]ethyl pyridine-3-carboxylate], which “hemodynamic changes and QTc-interval” value [1] is on record?
Answer: no findings of hemodynamic changes, nor changes in the QTc-interval

Question: And the “subjects reporting TEAEs” value ([2]; 200 mg 8-hour MR formulation q12h fed, 5 days, 12 subjects)?
Answer: 100%

Question: And the “number of drug-related TEAEs of flushing (vascular disorders)” value ([2]; multiple-dose MR part)?
Answer: 2

Question: What about the “subjects with TEAEs considered not related to the study drug” value ([2]; multiple-dose MR part) of the same compound?
Answer: 75%

Question: And the “subjects with TEAEs considered related to the study drug” value ([2]; multiple-dose MR part)?
Answer: 58.3%

Question: What about the “subjects with TEAEs, SOC gastrointestinal disorders” value ([2]; multiple-dose MR part) of the same compound?
Answer: 41.7%

Question: What about the “subjects with TEAEs, SOC general disorders and administration site conditions” value ([2]; multiple-dose MR part) of the same compound?
Answer: 33.3%

Question: What about the “subjects with TEAEs, SOC musculoskeletal and connective tissue disorders” value ([2]; multiple-dose MR part) of the same compound?
Answer: 33.3%

Question: What about the “subjects with TEAEs, SOC nervous system disorders” value ([2]; multiple-dose MR part) of the same compound?
Answer: 58.3%

Question: And the “subjects with TEAEs, SOC renal and urinary disorders (pollakiuria)” value ([2]; multiple-dose MR part)?
Answer: 33.3%

Question: And the “subjects with drug-related TEAEs of flushing (vascular disorders)” value ([2]; multiple-dose MR part)?
Answer: 16.7%

Question: And the “subjects with drug-related TEAEs of pollakiuria” value ([2]; multiple-dose MR part)?
Answer: 33.3%

Question: What about the “subjects with drug-related TEAEs, nervous system disorders” value ([2]; multiple-dose MR part) of the same compound?
Answer: 16.7%

Question: And the half-life at 0.2 mg/mL ([3]; 0.1M HCl, pH 1, 0.1M HCl, pH 1.0, no surfactants)?
Answer: 188 min

Question: And the half-life at 0.2 mg/mL ([3]; FaSSGF, pH 1.6, FaSSGF, pH 1.6)?
Answer: 2910 min

Question: What about the half-life at 0.2 mg/mL ([3]; FaSSIF, pH 6.5, FaSSIF, pH 6.5) of the same compound?
Answer: 810 min

Question: And the half-life at 0.2 mg/mL ([3]; FeSSIF (medium simulating the GI tract), pH 5.8, FeSSIF, pH 5.8)?
Answer: 5980 min

Question: And the half-life at 0.2 mg/mL ([3]; pH 6, BiCarb adj (0.1M HCl neutralized with sodium bicarbonate), pH 6-8.2)?
Answer: 91.2 min

Question: And the “number of TEAEs of mild severity” value ([4]; of 37 TEAEs)?
Answer: Thirty-six

Question: What about the “number of TEAEs of moderate severity” value ([4]; of 37 TEAEs) of the same compound?
Answer: 1

Question: What about the tolerability ([4]; single doses of 50 mg and 200 mg MR formulations (4-hour, 8-hour) fasted, 200 mg 8-hour MR fed, healthy subjects) of the same compound?
Answer: well tolerated

Question: What about the “subjects with TEAEs considered not related to the study drug” value ([4]; single-dose MR part) of the same compound?
Answer: 83.3%

Question: What about the “subjects with TEAEs considered related to the study drug” value ([4]; single-dose MR part) of the same compound?
Answer: 33.3%

Question: And the “subjects with TEAEs, SOC gastrointestinal disorders” value ([4]; single-dose MR part)?
Answer: 33.3%

Question: What about the “subjects with TEAEs, SOC general disorders and administration site conditions” value ([4]; single-dose MR part) of the same compound?
Answer: 58.3%

Question: What about the “subjects with TEAEs, SOC nervous system disorders” value ([4]; single-dose MR part) of the same compound?
Answer: 58.3%

Question: What about the “subjects with drug-related TEAEs of pollakiuria” value ([4]; single-dose MR part) of the same compound?
Answer: 16.7%

Question: What about the “subjects reporting TEAEs” value ([4]; single-dose MR part, 12 subjects) of the same compound?
Answer: 83.3%

Question: And the half-life at 1 mg/mL ([5]; 20 mM ammonium acetate buffer, pH 5.05, 20 mM Am. Acetate)?
Answer: 27.4 days

Question: And the half-life at 1 mg/mL ([5]; 20 mM phosphate buffer, pH 3.52, 20 mM Phos)?
Answer: 10.6 days

Question: What about the half-life at 1 mg/mL ([5]; 20 mM phosphate buffer, pH 6.5, 20 mM Phos) of the same compound?
Answer: 2.58 days

Question: What about the half-life at 1 mg/mL ([5]; 20 mM phosphate buffer, pH 6.88, 20 mM Phos) of the same compound?
Answer: 1.4 days

Question: What about the “1st order Kobs” value ([5]; pH 2.74, Water) of the same compound?
Answer: 0.00516 hr − 1

Question: What about the half-life at 1 mg/mL ([5]; pH 2.74, Water) of the same compound?
Answer: 5.6 days

Question: What about the “1st order Kobs” value ([5]; pH 3.52, 20 mM Phos) of the same compound?
Answer: 0.00273 hr − 1

Question: What about the “1st order Kobs” value ([5]; pH 5.05, 20 mM Am. Acetate) of the same compound?
Answer: 0.00105 hr − 1

Question: What about the “1st order Kobs” value ([5]; pH 5.64, 20 mM Phos) of the same compound?
Answer: 0.00248 hr − 1

Question: And the “1st order Kobs” value ([5]; pH 6.5, 20 mM Phos)?
Answer: 0.01119 hr − 1

Question: And the “1st order Kobs” value ([5]; pH 6.88, 20 mM Phos)?
Answer: 0.02064 hr − 1

Question: What about the half-life at 1 mg/mL ([5]; phosphate buffer, pH 5.64, 20 mM Phos) of the same compound?
Answer: 11.7 days

Question: What about the BCS class [6] of the same compound?
Answer: BCS Class 1

Question: Which “effect of food on exposure parameters Cmax, AUC0-t and AUC0-inf” value [7] does the source give for `COc1ccc(CN2CCNCC2)c(OC)c1OC` [trimetazidine, reference compound] here?
Answer: No evidence for an effect of food

Question: What about the “food effect estimate for AUC0-inf (ratio of geometric means fed/fasted)” value [7] of the same compound?
Answer: 0.97

Question: And the “food effect estimate for AUC0-t (ratio of geometric means fed/fasted)” value [7]?
Answer: 0.99

Question: And the “food effect estimate for Cmax (ratio of geometric means fed/fasted)” value [7]?
Answer: 1.10

Question: And the “effect of food on exposure parameters Cmax, AUC0-t and AUC0-inf” value [8]?
Answer: No evidence for an effect of food

Question: Which results are given for `COc1ccc(CN2CCN(CCO)CC2)c(OC)c1OC` [CV-8814, 2-[4-[(2,3,4-trimethoxyphenyl)methyl]piperazin-1-yl]ethanol]?
Answer: Cmax higher under fed relative to fasted conditions [7]: approximately 42%; effect of food on exposure parameters AUC0-t and AUC0-inf [7]: No evidence for an effect of food; food effect estimate for AUC0-inf (ratio of geometric means fed/fasted) [7]: 1.16; food effect estimate for AUC0-t (ratio of geometric means fed/fasted) [7]: 1.16; food effect estimate for Cmax (ratio of geometric means fed/fasted) [7]: 1.42; Cmax lower under fed relative to fasted conditions [8]: approximately 36%; effect of food on exposure parameters AUC0-t and AUC0-inf [8]: No evidence for an effect of food
